Values joined by “and” are separate entries in the source; they are usually repeats but may differ in a detail not shown here. Equal values may be shown once. Inconclusive results and toxic doses are left out.
Tested on: BDF1 mice, P388 leukemia ip, median survival T/C
Assay: NCI In Vivo Anticancer Drug Screen. Data for tumor model P388 Leukemia (intraperitoneal) in B6D2F1 (BDF1) mice
Conditions: endpoint: median survival time, higher = longer survival
Summary of the method: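 Read-out is survival of treated animals expressed relative to the vehicle group, as a T/C ratio.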

[1] = dose: 50.0 mg/kg/injection, schedule: Q01DX009 (ip), vehicle: saline with Tween-80
[2] = dose: 100.0 mg/kg/injection, schedule: Q01DX009 (ip), vehicle: saline with Tween-80
[3] = dose: 200.0 mg/kg/injection, schedule: Q01DX009 (ip), vehicle: saline with Tween-80
[4] = dose: 50.0 mg/kg/injection, schedule: Q01DX009 (ip), vehicle: saline
[5] = dose: 100.0 mg/kg/injection, schedule: Q01DX009 (ip), vehicle: saline
[6] = dose: 200.0 mg/kg/injection, schedule: Q01DX009 (ip), vehicle: saline
[7] = dose: 200.0 mg/kg/injection, schedule: Q04DX003 (ip), vehicle: Klucel (hydroxypropylcellulose) (HPC)
[8] = dose: 400.0 mg/kg/injection, schedule: Q04DX003 (ip), vehicle: Klucel (hydroxypropylcellulose) (HPC)

**Q.** How did the T/C (dose: 75.0 mg/kg/injection, schedule: Q04DX003 (ip), vehicle: saline with Tween-80) turn out when O=[N+]([O-])c1ccc(N2CCN(Cc3ccccc3)CC2)c2c1no[n+]2[O-] was run?
**A.** 101 % of control

**Q.** What about the T/C (dose: 300.0 mg/kg/injection, schedule: Q04DX003 (ip), vehicle: saline with Tween-80) of the same compound?
**A.** 121 % of control

**Q.** Which results are given for Cc1ccc(CC(N)c2nn[nH]n2)cc1 (stereo unspecified)?
**A.** T/C (dose: 25.0 mg/kg/injection, schedule: Q01DX009 (ip), vehicle: saline with Tween-80): 97 % of control; T/C [1]: 105 % of control; T/C [2]: 100 % of control

**Q.** COc1c(CO)c2c(c(OC)c1OC)-c1ccc(OC)c(=O)cc1[C@@H](NC(C)=O)CC2 was tested. Which T/C (dose: 25.0 mg/kg/injection, schedule: Q01DX009 (ip), vehicle: Klucel (hydroxypropylcellulose) (HPC)) did it give?
**A.** 153 % of control

**Q.** And the T/C (dose: 50.0 mg/kg/injection, schedule: Q01DX009 (ip), vehicle: Klucel (hydroxypropylcellulose) (HPC))?
**A.** 168 % of control

**Q.** Which T/C (dose: 0.62 mg/kg/injection, schedule: Q01DX009 (ip), vehicle: saline) does the source give for CC(=O)Oc1cc2cnc3c4cc(OC(C)=O)c(OC(C)=O)cc4ccc3c2cc1OC(C)=O here?
**A.** 106 % of control

**Q.** What about the T/C (dose: 1.25 mg/kg/injection, schedule: Q01DX009 (ip), vehicle: saline) of the same compound?
**A.** 94 % of control

**Q.** What about the T/C (dose: 2.5 mg/kg/injection, schedule: Q01DX009 (ip), vehicle: saline) of the same compound?
**A.** 97 % of control

**Q.** What about the T/C (dose: 5.0 mg/kg/injection, schedule: Q01DX009 (ip), vehicle: saline) of the same compound?
**A.** 86 % of control

**Q.** What about the T/C (dose: 20.0 mg/kg/injection, schedule: Q01DX009 (ip), vehicle: saline) of the same compound?
**A.** 109 % of control

**Q.** And the T/C (dose: 80.0 mg/kg/injection, schedule: Q01DX009 (ip), vehicle: saline)?
**A.** 86 % of control

**Q.** What about the T/C (dose: 120.0 mg/kg/injection, schedule: Q01DX009 (ip), vehicle: saline) of the same compound?
**A.** 90 % of control

**Q.** What about the T/C (dose: 240.0 mg/kg/injection, schedule: Q01DX009 (ip), vehicle: saline) of the same compound?
**A.** 95 % of control

**Q.** What does the source list for Cc1ccc(S(=O)(=O)NC(=O)NNC(=O)C(F)(F)F)cc1?
**A.** T/C [1]: 114 % of control; T/C [2]: 96 % of control; T/C [3]: 109 % of control

**Q.** O=[N+]([O-])/C=C/c1ccccc1Cl was tested. Which T/C (dose: 2.2 mg/kg/injection, schedule: Q01DX009 (ip), vehicle: other) did it give?
**A.** 110 % of control

**Q.** And the T/C (dose: 3.3 mg/kg/injection, schedule: Q01DX009 (ip), vehicle: other)?
**A.** 119 % of control

**Q.** What about the T/C (dose: 5.0 mg/kg/injection, schedule: Q01DX009 (ip), vehicle: other) of the same compound?
**A.** 122 % of control

**Q.** And the T/C (dose: 6.6 mg/kg/injection, schedule: Q04DX003 (ip), vehicle: other)?
**A.** 109 % of control

**Q.** What about the T/C (dose: 7.5 mg/kg/injection, schedule: Q01DX009 (ip), vehicle: other) of the same compound?
**A.** 115 % of control

**Q.** And the T/C (dose: 10.0 mg/kg/injection, schedule: Q04DX003 (ip), vehicle: other)?
**A.** 104 % of control

**Q.** And the T/C (dose: 37.5 mg/kg/injection, schedule: Q01DX009 (sc), vehicle: olive oil, sesame oil, peanut oil)?
**A.** 100 % of control

**Q.** What about the T/C (dose: 37.5 mg/kg/injection, schedule: Q04DX003 (sc), vehicle: olive oil, sesame oil, peanut oil) of the same compound?
**A.** 95 % of control

**Q.** And the T/C (dose: 75.0 mg/kg/injection, schedule: Q01DX009 (sc), vehicle: olive oil, sesame oil, peanut oil)?
**A.** 109 % of control

**Q.** What about the T/C (dose: 75.0 mg/kg/injection, schedule: Q04DX003 (sc), vehicle: olive oil, sesame oil, peanut oil) of the same compound?
**A.** 90 % of control

**Q.** What about the T/C (dose: 150.0 mg/kg/injection, schedule: Q01DX009 (sc), vehicle: olive oil, sesame oil, peanut oil) of the same compound?
**A.** 100 % of control

**Q.** What about the T/C (dose: 150.0 mg/kg/injection, schedule: Q04DX003 (sc), vehicle: olive oil, sesame oil, peanut oil) of the same compound?
**A.** 104 % of control

**Q.** What does the source list for [N-]=[N+]=CC(=O)CCC(N)C(=O)O (stereo unspecified)?
**A.** T/C (dose: 0.03 mg/kg/injection, schedule: Q01DX010 (ip), vehicle: saline): 113 % of control; T/C (dose: 0.1 mg/kg/injection, schedule: Q01DX010 (ip), vehicle: saline): 170 % of control; T/C (dose: 0.1 mg/kg/injection, schedule: Q01DX010 (ip), vehicle: water): 150 % of control; T/C (dose: 0.2 mg/kg/injection, schedule: Q01DX010 (ip), vehicle: saline): 95 % of control and 100 % of control; T/C (dose: 0.2 mg/kg/injection, schedule: Q01DX010 (ip), vehicle: water): 190 % of control; T/C (dose: 0.4 mg/kg/injection, schedule: Q01DX010 (ip), vehicle: water): 155 % of control; T/C (dose: 0.6 mg/kg/injection, schedule: Q01DX010 (ip), vehicle: water): 95 % of control and 120 % of control; T/C (dose: 0.8 mg/kg/injection, schedule: Q01DX010 (ip), vehicle: water): 100 % of control; T/C (dose: 2.5 mg/kg/injection, schedule: Q02DX005 (oral), vehicle: other): 163 % of control; T/C (dose: 5.0 mg/kg/injection, schedule: Q02DX005 (oral), vehicle: other): 159 % of control; T/C (dose: 10.0 mg/kg/injection, schedule: Q02DX005 (oral), vehicle: other): 186 % of control; T/C (dose: 15.0 mg/kg/injection, schedule: Q02DX005 (oral), vehicle: other): 218 % of control; T/C (dose: 20.0 mg/kg/injection, schedule: Q02DX005 (oral), vehicle: other): 86 % of control

**Q.** Which results are given for CC(=O)Nc1ccc(S(=O)(=O)SC(F)(F)F)cc1?
**A.** T/C (dose: 3.13 mg/kg/injection, schedule: Q01DX010 (ip), vehicle: saline): 100 % of control; T/C (dose: 6.25 mg/kg/injection, schedule: Q01DX010 (ip), vehicle: saline): 104 % of control; T/C (dose: 12.5 mg/kg/injection, schedule: Q01DX010 (ip), vehicle: saline): 100 % of control

**Q.** ICCCCCCCCCC[n+]1ccc2ccccc2c1 was tested. Which T/C (dose: 12.5 mg/kg/injection, schedule: Q01DX005 (ip), vehicle: saline with Tween-80) did it give?
**A.** 120 % of control

**Q.** What about the T/C (dose: 25.0 mg/kg/injection, schedule: Q01DX005 (ip), vehicle: saline with Tween-80) of the same compound?
**A.** 122 % of control

**Q.** Which results are given for CCCCNC1=CC(=O)CC(C)(C)C1?
**A.** T/C [4]: 105 % of control; T/C [5]: 111 % of control; T/C [6]: 107 % of control

**Q.** Which T/C [1] does the source give for CN1C(=O)NNC(=O)c2ccccc21 here?
**A.** 106 % of control

**Q.** And the T/C [2]?
**A.** 100 % of control

**Q.** What about the T/C [3] of the same compound?
**A.** 97 % of control

**Q.** Which T/C (dose: 100.0 mg/kg/injection, schedule: Q01DX009 (ip), vehicle: Klucel (hydroxypropylcellulose) (HPC)) does the source give for COC(=O)C(Br)C(Br)N1C(=O)c2ccccc2C1=O (stereo unspecified) here?
**A.** 100 % of control

**Q.** And the T/C (dose: 100.0 mg/kg/injection, schedule: Q04DX003 (ip), vehicle: Klucel (hydroxypropylcellulose) (HPC))?
**A.** 104 % of control

**Q.** What about the T/C (dose: 200.0 mg/kg/injection, schedule: Q01DX009 (ip), vehicle: Klucel (hydroxypropylcellulose) (HPC)) of the same compound?
**A.** 104 % of control

**Q.** What about the T/C [7] of the same compound?
**A.** 100 % of control

**Q.** What about the T/C (dose: 400.0 mg/kg/injection, schedule: Q01DX009 (ip), vehicle: Klucel (hydroxypropylcellulose) (HPC)) of the same compound?
**A.** 108 % of control

**Q.** What about the T/C [8] of the same compound?
**A.** 109 % of control

**Q.** CCOC(=O)C(NC(C)=O)(C(=O)OCC)C(C)C(=O)c1ccc(OC)c(OC)c1OCc1ccccc1 (stereo unspecified) was tested. Which T/C (dose: 12.5 mg/kg/injection, schedule: Q01DX009 (ip), vehicle: saline) did it give?
**A.** 101 % of control

**Q.** What about the T/C (dose: 25.0 mg/kg/injection, schedule: Q01DX009 (ip), vehicle: saline) of the same compound?
**A.** 111 % of control

**Q.** What about the T/C [4] of the same compound?
**A.** 92 % of control

**Q.** And the T/C [6]?
**A.** 101 % of control

**Q.** Which results are given for O=C(Cn1cc(F)c(=O)[nH]c1=O)c1cccs1?
**A.** T/C [5]: 100 % of control; T/C (dose: 100.0 mg/kg/injection, schedule: Q04DX003 (ip), vehicle: saline): 95 % of control; T/C [6]: 100 % of control; T/C (dose: 200.0 mg/kg/injection, schedule: Q04DX003 (ip), vehicle: saline): 90 % of control; T/C (dose: 400.0 mg/kg/injection, schedule: Q01DX009 (ip), vehicle: saline): 95 % of control; T/C (dose: 400.0 mg/kg/injection, schedule: Q04DX003 (ip), vehicle: saline): 90 % of control

**Q.** O=[N+]([O-])c1cccc2c[n+](Cc3ccc(Br)cc3)ccc12 was tested. Which T/C (dose: 12.5 mg/kg/injection, schedule: Q01DX009 (ip), vehicle: saline with Tween-80) did it give?
**A.** 123 % of control

**Q.** For CCCC(C)(C)c1cc(C(C)C)cc(C(C)(C)CCC)c1O, which T/C (dose: 12.5 mg/kg/injection, schedule: Q01DX009 (ip), vehicle: other) is on record?
**A.** 112 % of control

**Q.** And the T/C (dose: 25.0 mg/kg/injection, schedule: Q01DX009 (ip), vehicle: other)?
**A.** 118 % of control

**Q.** What about the T/C (dose: 50.0 mg/kg/injection, schedule: Q01DX009 (ip), vehicle: other) of the same compound?
**A.** 97 % of control

**Q.** With COc1cccc(CCCC(=O)O)c1 as the compound, how does the T/C [7] read?
**A.** 95 % of control

**Q.** What about the T/C [8] of the same compound?
**A.** 87 % of control
